According to patent publication US9018261B2, “Choline salt of an anti-inflammatory substituted cyclobutenedione compound” (Novartis AG, priority 2011, dated 2015):
Where a name gives a salt, the structure may show the parent alone.

Assays:
[1] = solubility in simulated gastric fluid; assay type: physicochemical
[2] = hygroscopicity (amount of water absorbed); assay type: physicochemical
Description: Furthermore, the hygroscopicity of the choline salt is much reduced compared with the free acid. The amount of water absorbed by the free acid is 2.4% and 2.8% by weight after 1 day at 80% and 92% humidity, respectively, and the amount of water absorbed by the choline salt is 0.7% and 0.6% by weight after 1 day at 80% and 92% humidity, respectively.

[3] = oral exposure in male SPRAGUE DAWLEY rats; assay type: in vivo; details: dosed at 10 mg/kg to male SPRAGUE DAWLEY rats
Procedure: (§1) The choline salt has also a much improved dissolution rate at pH 1 and oral exposure when dosed at 10 mg/kg to male SPRAGUE DAWLEY® rats compared to the free acid form.

[4] = conversion into free acid form in gastric acidic conditions; assay type: physicochemical
Description: The result of this is poor bioavailability of 6-chloro-3-[2-(1-ethyl-propylamino)-3,4-dioxo-cyclobut-1-enylamino]-2-hydroxy-N-methoxy-N-methyl-benzenesulfonamide.

[5] = pharmacokinetic study in male beagle dogs (plasma concentrations); details: dog, in vivo, 0.3 mg/kg
[6] = dissolution rate at pH 1; assay type: physicochemical
Procedure: as §1

[7] = solubility in aqueous solution at pH 1.0-7.0; assay type: physicochemical; details: aqueous buffer, pH 1.0-7.0, as a free acid
Procedure: [drawing 1] is a weakly acidic compound and is practically insoluble in aqueous solution at pH 1.0-7.0 as a free acid (<0.005 mg/ml).

| Structure (SMILES) | solubility ([1]; simulated gastric fluid at pH 1.2) | solubility in simulated gastric fluid compared to other salts ([1]; vs sodium, calcium, N,N-dimethyl-2-aminoethanol and N-(2-hydroxyethyl)pyrrolidine salts) | amount of water absorbed ([2]; after 1 day at 80% humidity) | amount of water absorbed ([2]; after 1 day at 92% humidity) | oral exposure compared to the free acid form [3] | conversion into the free acid form [4] | systemic exposure after intravenous administration [5] | dissolution rate compared to the free acid form [6] | solubility [7] |
| --- | --- | --- | --- | --- | --- | --- | --- | --- | --- |
| CCC(CC)Nc1c(Nc2ccc(Cl)c(S(=O)(=O)N(C)OC)c2O)c(=O)c1=O [choline salt, 6-chloro-3-[2-(1-ethyl-propylamino)-3,4-dioxo-cyclobut-1-enylamino]-2-hydroxy-N-methoxy-N-methyl-benzenesulfonamide choline] | 8020 µg/mL | significantly improved | 0.7 % by weight | 0.6 % by weight | much improved | readily converts | 912 ± 126 ng·h/mL | much improved |  |
| CCC(CC)Nc1c(Nc2ccc(Cl)c(S(=O)(=O)N(C)OC)c2O)c(=O)c1=O [free acid, 6-chloro-3-[2-(1-ethyl-propylamino)-3,4-dioxo-cyclobut-1-enylamino]-2-hydroxy-N-methoxy-N-methyl-benzenesulfonamide] |  |  | 2.4 % by weight | 2.8 % by weight |  |  |  |  | < 5 µg/mL |
